This note sets out measurements from article PMC4885039, “A Scorpion Defensin BmKDfsin4 Inhibits Hepatitis B Virus Replication in Vitro” (Toxins, 2016).

One data set relates to HepG2.2.15 cells. The experiment in a line: MTT cytotoxicity assay, HepG2.2.15. The following applies: 48 h, 0 to 200 μM, five repetitions. In kind it is cell-based, human. The procedure:
Cells were seeded in 96-well plates (10^4 cells per well) and cultured in DMEM containing 10% FBS in 5% CO2 at 37 °C for 12 h. Then, peptides were added to the medium in a serial of concentrations. The concentrations ranged from 0 to 200 μM. Five repetitions were set for each concentration. After 48 h of incubation, 20 μL of MTT solution (5 mg/mL in PBS buffer; Invitrogen, Foster, CA, USA) was added to the medium in each well, and the plate was incubated in 5% CO2 at 37 °C for 4 h. Then, the medium was replaced by 100 μL DMSO. To completely dissolve the precipitated crystal purple formazan, the plate was then gently shaken for 10 min at room temperature. The absorbance at a wavelength of 570 nm was measured using a microplate reader (BioTek, Winooski, VT, USA).
(In general: Formazan colour is commonly taken as a measure of viable cells.)

The test system of another data set is human erythrocytes. The experiment in a line: Hemolysis assay. In kind it is cell-based. The following applies: 37 °C, 1 h, absorbance at 570 nm, 0 to 200 μM. The protocol: Erythrocytes were obtained from fresh human blood by centrifugation for 10 min at 1000× g. After washed by HEPES buffer for three times, erythrocytes were resuspended in normal saline and seeded in 96-well plates (10^7 cells per well). BmKDfsin4 was added in a serial of concentrations, 0.1% triton-X100 was used as positive control and normal saline was used as negative control. After incubated at 37 °C for 1 h, the supernatants were collected by centrifugation for 10 min at 1000× g. The absorbance of hemoglobin was measured at a wavelength of 570 nm.

The next data set has as its system HBsAg. The experiment in a line: Western blot of intracellular HBsAg in HepG2.2.15 cell lysates. In kind it is cell-based, Hepatitis B virus. As to conditions: 10 μM, HepG2.2.15 cell lysate. The protocol: (§1) Cells were resuspended with radioimmunoprecipitation (RIPA) assay buffer (50 mM Tris-HCl (pH 7.5), 150 mM sodium chloride, 1% Nonidet P40, and 0.5% sodium deoxycholate) with phenylmethylsulfonyl fluoride (PMSF) and incubated on ice for 30 min for fully lysis. Cell lysates were electrophoresed in sodium dodecyl sulfate-polyacrylamide (SDS) gels and transferred to nitrocellulose membranes (Millipore, Darmstadt, Germany). The antibodies used for probing were as follows: mouse monoclonal anti-HBsAg (1:200 dilution, Abcam, Cambridge, UK), rabbit polyclonal anti-HBV core (1:500 dilution, Dako-Cytomation, Carpinteria, CA, USA), mouse monoclonal anti-Hep B xAg (1:200 dilution, Santa Cruz Biotechnology, Dallas, TX, USA), mouse monoclonal anti-Hep B Pol (1:200 dilution, Santa Cruz Biotechnology, Dallas, TX, USA), and anti-β-actin (1:5000 dilution, Santa Cruz Biotechnology, Dallas, TX, USA) were used as primary antibodies, and the secondary antibodies were conjugated to horseradish peroxidase (HRP).
(In general: Immunoblotting shows a protein as a band on a membrane.)

The next data set deals with HBx protein. The experiment in a line: Western blot of intracellular HBx protein in HepG2.2.15 cell lysates. In kind it is cell-based, Hepatitis B virus. The following applies: HepG2.2.15 cell lysate. The procedure:
as §1

The test system of the next data set is HBV core. Description: Western blot of intracellular HBV core in HepG2.2.15 cell lysates. It is filed as cell-based, Hepatitis B virus. The following applies: HepG2.2.15 cell lysate. The procedure: as §1
Another data set relates to HBV RT. Description: Western blot of intracellular HBV RT in HepG2.2.15 cell lysates. As to conditions: HepG2.2.15 cell lysate. It is filed as cell-based, Hepatitis B virus. The procedure: as §1

Residues, ends and D or L forms follow the SMILES beside them.

As for `CC[C@H](C)[C@@H]1NC(=O)[C@H](CO)NC(=O)[C@H](CCC(N)=O)NC(=O)[C@@H]2CSSC[C@@H](C(=O)N[C@@H](Cc3ccc(O)cc3)C(=O)N[C@@H](CCCNC(=N)N)C(=O)O)NC(=O)[C@H](C(C)C)NC(=O)[C@@H]3CSSC[C@H](NC(=O)[C@H](CCC(N)=O)NC(=O)CNC(=O)[C@H](CCC(N)=O)NC(=O)[C@H](CC(N)=O)NC(=O)[C@H](Cc4ccccc4)NC(=O)[C@@H]4CCCN4C(=O)[C@@H](NC(=O)CNC(=O)[C@H](Cc4ccccc4)NC(=O)CN)CSSC[C@H](NC(=O)[C@H](Cc4ccc(O)cc4)NC(=O)CNC(=O)CNC(=O)[C@H](CCCNC(=N)N)NC(=O)[C@H](CCCNC(=N)N)NC(=O)[C@H](CCCNC(=N)N)NC1=O)C(=O)N[C@@H](CC(=O)O)C(=O)NCC(=O)N[C@@H](Cc1ccccc1)C(=O)N[C@@H](CC(C)C)C(=O)N[C@@H](CCCCN)C(=O)N[C@@H]([C@@H](C)O)C(=O)N[C@@H](CCCNC(=N)N)C(=O)N3)C(=O)N[C@@H](Cc1c[nH]cn1)C(=O)N[C@@H](CCCCN)C(=O)N[C@@H](Cc1c[nH]cn1)C(=O)N2` [BmKDfsin4] (HELM PEPTIDE1{G.F.G.C.P.F.N.Q.G.Q.C.H.K.H.C.Q.S.I.R.R.R.G.G.Y.C.D.G.F.L.K.T.R.C.V.C.Y.R}$PEPTIDE1,PEPTIDE1,4:R3-25:R3|PEPTIDE1,PEPTIDE1,11:R3-33:R3|PEPTIDE1,PEPTIDE1,15:R3-35:R3$$$V2.0; N-terminus and C-terminus assumed; bridges inferred), the “CC50 (50% cytotoxicity concentration), HepG2.2.15” value in the data set on HepG2.2.15 cells is 167.82 µM. Moreover, the “HC50 (50% hemolysis concentration)” value in the data set on human erythrocytes worked out at 66.85 µM. Further, the “intracellular HBsAg level” value in the data set on HBsAg is on record as “almost undetectable”. The entries for the “intracellular HBx protein level” value in the data set on HBx protein (5 μM) and in the data set with HBx protein (10 μM) were “only a slight band” and “totally undetectable”, respectively. Moreover, the “inhibitory activity against intracellular HBV core” value in the data set with HBV core is “significantly concentration-dependent inhibition”. In addition, in the data set on HBV RT, the “inhibitory activity against intracellular HBV RT” value is given as “significantly concentration-dependent inhibition”.
